In brackets after ≈: the same amount, converted by molar mass. Like-named read-outs stand apart in the source and are kept apart here.
Legend:
B. cereus ATCC 11778 = assay: MIC, NCCLS broth microdilution assay; assay type: cell-based, Bacillus cereus; settings: for MIC: Bacillus cereus
E. coli ATCC 25922 = assay: MIC, NCCLS broth microdilution assay; assay type: cell-based, Escherichia coli; settings: for MIC: Escherichia coli
S. aureus ATCC 27660 = assay: MIC, NCCLS broth microdilution assay; assay type: cell-based, Staphylococcus aureus; settings: for MIC: Staphylococcus aureus, ATCC 27660 / MRSA, read-out: Minimum Inhibitory Concentration (MIC)
E. faecalis ATCC 29212 = assay: MIC, NCCLS broth microdilution assay; assay type: cell-based, Enterococcus faecalis; settings: for MIC: Enterococcus faecalis
S. aureus ATCC 13709 = assay: MIC, NCCLS broth microdilution assay; assay type: cell-based, Staphylococcus aureus; settings: for MIC: Staphylococcus aureus, ATCC 13709 / MSSA, read-out: Minimum Inhibitory Concentration (MIC)
C. albicans ATCC 38247 = assay: MIC, antifungal assay; assay type: cell-based, Candida albicans; settings: for MIC: Candida albicans
S. aureus ATCC 33591 = assay: MIC, NCCLS broth microdilution assay; assay type: cell-based, Staphylococcus aureus; settings: for MIC: Staphylococcus aureus
S. pneumoniae ATCC 49619 = assay: MIC, NCCLS broth microdilution assay; assay type: cell-based, Streptococcus pneumoniae; settings: for MIC: Streptococcus pneumoniae
[1] = S. aureus ATCC 27660, methicillin resistant strain (MRSA)
[2] = S. aureus ATCC 13709, methicillin sensitive strain (MSSA)

Compound | Minimum Inhibitory Concentration (MIC) (B. cereus ATCC 11778; B. cereus ATCC 11778) | Minimum Inhibitory Concentration (MIC) (E. coli ATCC 25922; E. coli ATCC 25922) | Minimum Inhibitory Concentration (MIC) (S. aureus ATCC 27660; [1]) | Minimum Inhibitory Concentration (MIC) (E. faecalis ATCC 29212; E. faecalis ATCC 29212) | Minimum Inhibitory Concentration (MIC) (S. aureus ATCC 13709; [2]) | Minimum Inhibitory Concentration (MIC) (C. albicans ATCC 38247; C. albicans ATCC 38247) | Minimum Inhibitory Concentration (MIC) (S. aureus ATCC 33591; S. aureus ATCC 33591) | Minimum Inhibitory Concentration (MIC) (S. pneumoniae ATCC 49619; S. pneumoniae ATCC 49619) | further results
CN(CCCN)CCCNc1ncccc1C(=O)Nc1ccc(-c2cc3ccccc3o2)nc1 [Compound A-39] | – | – | – | – | – | – | – | – | MIC (B. cereus ATCC 11778; ATCC11778, B. cereus ATCC 11778, read-out: Minimum Inhibitory Concentration (MIC)): 12 to 32 µg/mL (≈ 26.2 to 69.8 µM); MIC (E. coli ATCC 25922; ATCC25922, E. coli ATCC 25922, read-out: Minimum Inhibitory Concentration (MIC)): > 32 µg/mL; MIC (S. aureus ATCC 27660; [1]): 12 to 32 µg/mL (≈ 26.2 to 69.8 µM); MIC (E. faecalis ATCC 29212; ATCC29212, E. faecalis ATCC 29212, read-out: Minimum Inhibitory Concentration (MIC)): 12 to 32 µg/mL (≈ 26.2 to 69.8 µM); MIC (S. aureus ATCC 13709; [2]): 12 to 32 µg/mL (≈ 26.2 to 69.8 µM); MIC (C. albicans ATCC 38247; ATCC38247, C. albicans ATCC 38247, read-out: Minimum Inhibitory Concentration (MIC)): > 32 µg/mL; MIC (S. aureus ATCC 33591; ATCC33591, S. aureus ATCC 33591, read-out: Minimum Inhibitory Concentration (MIC)): 12 to 32 µg/mL (≈ 26.2 to 69.8 µM); MIC (S. pneumoniae ATCC 49619; ATCC49619, S. pneumoniae ATCC 49619, read-out: Minimum Inhibitory Concentration (MIC)): 12 to 32 µg/mL (≈ 26.2 to 69.8 µM)
NCCNc1ncccc1C(=O)Nc1ccc(-c2cc3ccccc3o2)nc1 [Compound A-40] | + (12 ≦ MIC ≦ 32) | + (12 ≦ MIC ≦ 32) | ++ (4 < MIC < 12) | ++ (4 < MIC < 12) | ++ (4 < MIC < 12) | + (12 ≦ MIC ≦ 32) | + (12 ≦ MIC ≦ 32) | >32 µg/mL | –
CN(CCCN)CCCNc1cc(Cl)ccc1C(=O)Nc1ccc(-c2cc3ccccc3o2)nc1 [Compound A-41] | ++ (4 < MIC < 12) | ++ (4 < MIC < 12) | +++ (MIC ≦ 4) | +++ (MIC ≦ 4) | +++ (MIC ≦ 4) | ++ (4 < MIC < 12) | +++ (MIC ≦ 4) | + (12 ≦ MIC ≦ 32) | –
O=C(Nc1ccc(-c2cc3ccccc3o2)nc1)c1ccc(Cl)cc1NCCN1CCCC1 [Compound A-43] | ++ (4 < MIC < 12) | >32 µg/mL | ++ (4 < MIC < 12) | ++ (4 < MIC < 12) | ++ (4 < MIC < 12) | >32 µg/mL | ++ (4 < MIC < 12) | + (12 ≦ MIC ≦ 32) | –
CN(C)CCCNc1cc(Cl)ccc1C(=O)Nc1ccc(-c2cc3ccccc3o2)nc1 [Compound A-44] | ++ (4 < MIC < 12) | >32 µg/mL | ++ (4 < MIC < 12) | ++ (4 < MIC < 12) | ++ (4 < MIC < 12) | ++ (4 < MIC < 12) | ++ (4 < MIC < 12) | + (12 ≦ MIC ≦ 32) | –
NCCNc1cc(Cl)ccc1C(=O)Nc1ccc(-c2cc3ccccc3o2)nc1 [Compound A-45] | – | – | – | – | – | – | – | – | MIC (B. cereus ATCC 11778; ATCC11778, read-out: Minimum Inhibitory Concentration (MIC)): 4 to 12 µg/mL (≈ 9.83 to 29.5 µM); MIC (E. coli ATCC 25922; ATCC25922, read-out: Minimum Inhibitory Concentration (MIC)): > 32 µg/mL; MIC (S. aureus ATCC 27660): < 4 µg/mL; MIC (E. faecalis ATCC 29212; ATCC29212, read-out: Minimum Inhibitory Concentration (MIC)): 4 to 12 µg/mL (≈ 9.83 to 29.5 µM); MIC (S. aureus ATCC 13709): < 4 µg/mL; MIC (C. albicans ATCC 38247; ATCC38247, read-out: Minimum Inhibitory Concentration (MIC)): 4 to 12 µg/mL (≈ 9.83 to 29.5 µM); MIC (S. aureus ATCC 33591; ATCC33591, read-out: Minimum Inhibitory Concentration (MIC)): < 4 µg/mL; MIC (S. pneumoniae ATCC 49619; ATCC49619, read-out: Minimum Inhibitory Concentration (MIC)): 12 to 32 µg/mL (≈ 29.5 to 78.6 µM)
O=C(Nc1ccc(-c2cc3ccccc3s2)cc1)c1nsc(NCCN2CCCC2)c1Cl [Compound A-46] | >32 µg/mL | >32 µg/mL | + (12 ≦ MIC ≦ 32) | >32 µg/mL | + (12 ≦ MIC ≦ 32) | >32 µg/mL | >32 µg/mL | >32 µg/mL | –
O=C(Nc1ccc(-c2cc3ccccc3s2)cc1)c1cccnc1NCCN1CCNCC1 [Compound A-48] | + (12 ≦ MIC ≦ 32) | >32 µg/mL | +++ (MIC ≦ 4) | >32 µg/mL | +++ (MIC ≦ 4) | >32 µg/mL | +++ (MIC ≦ 4) | >32 µg/mL | –
Cc1ccc2nc(-c3ccc(NC(=O)c4nsc(NCCCN(C)C)c4Cl)cc3)sc2c1 [Compound A-54] | +++ (MIC ≦ 4) | >32 µg/mL | +++ (MIC ≦ 4) | +++ (MIC ≦ 4) | +++ (MIC ≦ 4) | +++ (MIC ≦ 4) | +++ (MIC ≦ 4) | + (12 ≦ MIC ≦ 32) | –
Cc1ccc2oc(-c3ccc(NC(=O)c4nsc(NCCCN(C)C)c4Cl)cc3)cc2n1 [Compound A-55] | + (12 ≦ MIC ≦ 32) | >32 µg/mL | ++ (4 < MIC < 12) | + (12 ≦ MIC ≦ 32) | ++ (4 < MIC < 12) | ++ (4 < MIC < 12) | + (12 ≦ MIC ≦ 32) | + (12 ≦ MIC ≦ 32) | –
NCCNc1snc(C(=O)Nc2ccc(-c3cc4ccccc4[nH]3)cc2)c1Cl [Compound A-56] | >32 µg/mL | >32 µg/mL | ++ (4 < MIC < 12) | + (12 ≦ MIC ≦ 32) | ++ (4 < MIC < 12) | + (12 ≦ MIC ≦ 32) | ++ (4 < MIC < 12) | >32 µg/mL | –
CN(C)CCCNc1snc(C(=O)Nc2ccc(-c3cc4ccccc4[nH]3)cc2)c1Cl [Compound A-57] | + (12 ≦ MIC ≦ 32) | >32 µg/mL | ++ (4 < MIC < 12) | ++ (4 < MIC < 12) | ++ (4 < MIC < 12) | +++ (MIC ≦ 4) | + (12 ≦ MIC ≦ 32) | >32 µg/mL | –
O=C(Nc1ccc(-c2cc3ccccc3[nH]2)cc1)c1nsc(NCCN2CCCC2)c1Cl [Compound A-58] | + (12 ≦ MIC ≦ 32) | >32 µg/mL | ++ (4 < MIC < 12) | ++ (4 < MIC < 12) | + (12 ≦ MIC ≦ 32) | +++ (MIC ≦ 4) | ++ (4 < MIC < 12) | + (12 ≦ MIC ≦ 32) | –
O=C(Nc1ccc(-c2cc3ccccc3[nH]2)cc1)c1nsc(NCCN2CCNCC2)c1Cl [Compound A-59] | + (12 ≦ MIC ≦ 32) | >32 µg/mL | ++ (4 < MIC < 12) | +++ (MIC ≦ 4) | ++ (4 < MIC < 12) | +++ (MIC ≦ 4) | + (12 ≦ MIC ≦ 32) | + (12 ≦ MIC ≦ 32) | –
O=C(Nc1ccc(-c2cc3ccccc3[nH]2)cc1)c1nsc(NCCN2CCOCC2)c1Cl [Compound A-60] | >32 µg/mL | >32 µg/mL | >32 µg/mL | >32 µg/mL | >32 µg/mL | >32 µg/mL | >32 µg/mL | >32 µg/mL | –
